Measurements from patent publication US5945415A, “(R)-5-bromo-N-(1-ethyl-4-methylhexahydr o-1H-1,4-diazepin-6-yl)-2-methoxy-6-methylamino-3-pyridinecarboxamide, process for producing the same and medicinal composition containing the same” (priority 1995, dated 1999).
Counter-ions that a name gives are not always drawn. Like-named read-outs stand apart in the source and are kept apart here.

Assays:
[1] = system: apomorphine-induced emesis; assay: Inhibitory effect on apomorphine-induced emesis in dog; assay type: in vivo, Beagle dogs; conditions: Canis lupus familiaris, read-out: ED50 apomorphine-induced emesis, dog
Protocol: Inhibitory Effect on Apomorphine-induced Emesis
Three to four Beagle dogs (body weight: 8-15 kg) per group were used to examine the inhibitory effect of the test compounds on apomorphine-inducedemesis. This test has been commonly conducted as a method for detecting dopamine blocker. Each of the test animals was orally administered with a prescribed dose of a test compound as dissolved or suspended in 0.5% tragacanth solution, and two hours thereafter, was administered with apomorphine hydrochloride (0.3 mg/kg) by subcutaneous injection at the back.

cisplatin-induced emesis [2] = assay: Effect on cisplatin-induced emesis in ferrets; assay type: in vivo, Male ferrets; conditions: Mustela putorius, 0.5 h, read-out: ED50 cisplatin-induced emesis, ferret
Protocol: Effect on Cisplatin-induced Emesis in Ferrets
Male ferrets (Marshall Lab., U.S.A.) weighing approximately 1 kg were used. For intravenous injection, a cannule was implanted in the cervical vein under pentobarbital anethesia, 3-4 days in advance of the experiment. To each test group each a prescribed dose of a test compound as dissolved or suspended in 0.5% tragacanth solution was orally administered, and 30 minutes thereafter, cisplatin (Sigma) 10 mg/kg (physiological salt solution, 3 ml/kg) was administered intravenously through the cannule.

cisplatin-induced emesis [3] = assay: Effect on cisplatin-induced emesis in dog; assay type: in vivo, Beagle dogs; conditions: Canis lupus familiaris, 0.5 h, read-out: ED50 cisplatin-induced emesis, dog
Protocol: Effect on Cisplatin-induced Emesis in Dog
Four to five Beagle dogs (body weight: 10-12 kg) per group were used to examine the inhibitory effect of the test compounds on cisplatin-induced emesis. To each test group each a prescribed dose of a test compound as dissolved or suspended in 0.5% tragacanth solution was orally administered, and 30 minutes thereafter, cisplatin (Sigma) 3 mg/kg (physiological salt solution, 3 ml/kg) was intravenously administered.

[4] = Inhibitory effect on exploratory activity; design: species or system Male mice (Std-ddy strain); conditions: mouse, in vivo; mice, oral, 2 hours after administration, counts for 3 minutes; read-out: ED50 inhibition of exploratory activity
Protocol: Inhibitory Effect on Exploratory Activity
Male mice (5 per group, Std-ddy strain, weighing 20-25 g) were used as the test animals, each of which was orally administered with a test compound which was dissolved or suspended in 0.5% tragacanth solution and after 2 hours from the administration put in a test cage (23×35×30 cm) on Animex activity meter (Farad Co.). Exploratory activity of each mouse was counted for the following 3 minutes. The mean counts of exploratory activities (count/3 min.) per group of the tested mice was compared with that of the control group to calculate the inhibition rate, and the effective dose (ED50 value) of each test compound for 50% inhibition was determined by probit analysis.

[5] = target: T1, serotonin S3 (5-HT3) receptor (Rattus norvegicus, UniProt P35563); assay: Inhibitory effect on von Bezold-Jarisch reflex (anti-serotonin S3 activity); assay type: in vivo, Male Wister rats; design: Male Wister rats weighing 250-350 g were anesthetized with urethane; from tissue; host or cells: whole animal in vivo (male Wistar rats); conditions: 0.05 h, test compound intravenous 3 minutes before 2-methylserotonin 10-30 μg/kg i.v., read-out: ED50 von Bezold-Jarisch Reflex Inhibition
T1 sequence (P35563 24-483): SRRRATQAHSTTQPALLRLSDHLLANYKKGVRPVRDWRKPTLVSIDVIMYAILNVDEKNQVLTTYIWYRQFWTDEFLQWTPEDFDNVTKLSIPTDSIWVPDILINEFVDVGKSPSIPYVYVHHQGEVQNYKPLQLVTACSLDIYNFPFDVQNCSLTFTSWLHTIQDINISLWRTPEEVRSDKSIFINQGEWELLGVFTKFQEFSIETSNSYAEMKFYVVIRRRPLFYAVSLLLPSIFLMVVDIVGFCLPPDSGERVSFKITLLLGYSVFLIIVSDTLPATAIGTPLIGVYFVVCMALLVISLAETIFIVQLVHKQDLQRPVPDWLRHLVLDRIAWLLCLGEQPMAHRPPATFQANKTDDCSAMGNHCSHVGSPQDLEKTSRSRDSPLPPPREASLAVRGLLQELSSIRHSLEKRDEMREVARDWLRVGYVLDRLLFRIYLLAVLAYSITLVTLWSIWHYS
Protocol: Inhibitory Effect on von Bezold-Jarisch Reflex (Anti-serotonin S3 Activity)
This test was carried out following the method of Fozard, et al. [cf. Arch. […] Male Wister rats weighing 250-350 g were anesthetized with urethane (1.5 g/kg, intraperitoneal) and set on their backs. Electrocardiogram (lead II) and a heart rate on the animals were recorded on inkwriting oscillograph via a biophysical amplifier and pulse rate tachometer, respectively. […] A fixed amount of 2-methylserotonin was repeatedly administered at 15-minute intervals until stable responses were obtained, and then a test compound was administered intravenously, 3 minutes before administration of 2-methylserotonin.

[6] = target: T1, serotonin S3 (5-HT3) receptor; assay: Serotonin S3 receptor-binding (in vitro receptor binding assay, [3H] quipazine); design: Crude synaptosome fractions prepared from rat brain were used as receptor samples; from tissue; host or cells: rat brain, crude synaptosome fraction
Protocol: (§1) Dopamine D2 receptor-binding and serotonin S3 receptor-binding activities (in vitro receptor binding assay)
(§2) Crude synaptosome fractions prepared from rat brain were used as receptor samples, and [^3 H] spiperone (D2) and [^3 H] quipazine (S3), as labelled ligands. A buffer solution containing each of the receptor sample and labelled ligand (final volume: 1 ml) was incubated for a prescribed period in the presence of one of the test compounds at various concentration levels, and thereafter the radioactive ligand bound to the receptor was isolated onto a filter using a cell-harvester (Brandel Co.) and radioactivity on each filter was measured with a liquid scintillation counter to determine the total amount bound to the receptor. Specifically bound amount was calculated by subtracting non-specifically bound amount from the total amount bound, said non-specifically bound amount being that bound under the presence of an excessive amount of non-labelled ligand [spiperone (D2) and [^3 H] quipazine (S3)] which was concurrently measured. The concentration level of the test compound at which specific binding of labelled ligand was inhibited by 50% (IC50 value) was calculated by probit analysis.

Dopamine D2 receptor = Dopamine D2 receptor (Rattus norvegicus, UniProt P61169); assay: biochemical
Dopamine D2 receptor, sequence (P61169 whole entry): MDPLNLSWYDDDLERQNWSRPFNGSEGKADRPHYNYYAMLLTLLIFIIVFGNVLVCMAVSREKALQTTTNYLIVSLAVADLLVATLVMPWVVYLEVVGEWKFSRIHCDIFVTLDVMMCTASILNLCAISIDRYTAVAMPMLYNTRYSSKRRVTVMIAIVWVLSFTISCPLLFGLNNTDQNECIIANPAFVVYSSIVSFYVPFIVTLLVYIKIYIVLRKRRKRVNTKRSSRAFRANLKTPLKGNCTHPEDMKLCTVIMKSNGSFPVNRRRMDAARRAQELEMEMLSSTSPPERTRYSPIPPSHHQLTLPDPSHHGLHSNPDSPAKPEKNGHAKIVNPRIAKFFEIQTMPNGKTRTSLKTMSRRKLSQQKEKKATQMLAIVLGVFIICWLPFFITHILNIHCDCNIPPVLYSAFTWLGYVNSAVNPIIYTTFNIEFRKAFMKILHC
Protocol: as §1, §2

[7] = dog, oral, 2 hours before apomorphine hydrochloride 0.3 mg/kg s.c., emetic episodes within 1 hour
[8] = ferret, oral, 30 minutes before cisplatin 10 mg/kg i.v., emetic episodes within 3 hours
[9] = dog, oral, 30 minutes before cisplatin 3 mg/kg i.v., emetic episodes within 5 hours

Row | SMILES | ED50 ([1]; po, 2 h) [mg/kg] | ED50 (cisplatin-induced emesis [2]; po) [mg/kg] | ED50 (cisplatin-induced emesis [3]; po) [mg/kg] | ED50 [1, 7] [mg/kg] | ED50 (cisplatin-induced emesis [2]; [8]) [mg/kg] | ED50 (cisplatin-induced emesis [3]; [9]) [mg/kg] | ED50 at 2 h [4] [mg/kg] | ED50 [5] [µg/kg] | IC50 [6] [nM] | IC50 (Dopamine D2 receptor) [µM] | IC50 ([6]; crude synaptosome fractions from rat brain, [3H] quipazine (S3), read-out: IC50 S3) [nM]
1 | O=c1[nH]c2ccccc2n1CCCN1CCC(n2c(=O)[nH]c3cc(Cl)ccc32)CC1 [domperidone, 5-chloro-1-[1-[3-(2,3-dihydro-2-oxo-1H-benzimidazol-1-yl)propyl]-4-piperidinyl]-1,3-dihydro-2H-benzimidazol-2-one] | 0.02 | > 10 | > 3 |  |  |  |  |  |  |  | 
2 | CCN(CC)CCNC(=O)c1cc(Cl)c(N)cc1OC.Cl.Cl.O [metoclopramide hydrochloride, 4-amino-5-chloro-N-[2-(diethylamino)ethyl]-2-methoxybenzamide dihydrochloride monohydrate] |  |  |  | 0.45 | 0.98 | 3.96 | 22.4 | 181 | 880 |  | 
3 | CCN1CCN(C)C[C@@H](NC(=O)c2cc(Br)c(NC)nc2OC)C1.O=C(O)/C=C/C(=O)O.O=C(O)/C=C/C(=O)O [Example 1, (R)-5-bromo-N-(1-ethyl-4-methylhexahydro-1H-1,4-diazepin-6-yl)-2-methoxy-6-methylamino-3-pyridinecarboxamide Difumarate] |  |  |  | 0.19 | 0.03 | 0.29 | 48.5 | 1.9 |  | 0.0117 | 1
4 | CN1C2CCCC1CC(NC(=O)c1nn(C)c3ccccc13)C2 (stereo not drawn) [granisetron hydrochloride, endo-1-methyl-N-(9-methyl-9-azobicyclo-[3.3.1]non-3-yl)-1H-indazole-3-carboxamide hydrochloride] |  |  |  |  |  |  |  | 0.26 |  | > 100 | 
5 | Cc1nccn1CC1CCc2c(c3ccccc3n2C)C1=O.Cl (centres unmarked) [ondansetron hydrochloride, 1,2,3,9-tetrahydro-9-methyl-3-[(2-methyl-1H-imidazol-1-yl)methyl]-4H-carbazol-4-one hydrochloride] |  |  |  | > 10 | 0.1 | 0.16 |  | 1.1 |  | > 100 | 
